# Tests used:
# Assay in all cases: relative viability (nuclei count vs DMSO), 5 days (fraction); higher = more cells survive
# [1] = compound: N=C1NC(=O)/C(=C/c2ccc(O)cc2)S1 [Mirin] + CS(=O)(=O)N1CCN(Cc2cc3nc(-c4cccc5[nH]ncc45)nc(N4CCOCC4)c3s2)CC1 [Pictilisib] (partner 1 µM)
# Procedure, shortened: (§1)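 A single step with final 0.05% Triton X-100, 1% formaldehyde and 1 ug/ml Hoechst fixed the cells and stained nuclei 5 days after treatment. Lung cancer cell lines in 1536-well plates had been treated by pin tool the day after seeding with one drug alone or a fixed anchor-drug dose plus five library-drug doses (not always all listed) in √10 steps, and nuclei were counted on 4× images. Relative viability is the ratio of nuclei in treated wells to nuclei in vehicle wells, taken as the median of duplicate plates.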
# [2] = compound: N=C1NC(=O)/C(=C/c2ccc(O)cc2)S1 [Mirin] + COc1cc2c(Oc3ccc(NC(=O)C4(C(=O)Nc5ccc(F)cc5)CC4)cc3F)ccnc2cc1OCCCN1CCOCC1 [Foretinib] (partner 0.25 µM)
# Procedure, shortened: as §1
# [3] = compound: N=C1NC(=O)/C(=C/c2ccc(O)cc2)S1 [Mirin] + CC(=O)c1c(C)c2cnc(Nc3ccc(N4CCNCC4)cn3)nc2n(C2CCCC2)c1=O [Palbociclib] (partner 0.5 µM)
# Procedure, shortened: as §1
# [4] = compound: CCn1c(-c2nonc2N)nc2cnc(Oc3cccc(NC(=O)c4ccc(OCCN5CCOCC5)cc4)c3)cc21 + COc1cccc2cc(-c3nc([C@H]4CC[C@H](C(=O)O)CC4)n4ncnc(N)c34)[nH]c12 [OSI-027] (partner 0.5 µM)
# Procedure, shortened: as §1
Cell Line,relative viability ([1]; first compound 0.25 µM),relative viability ([1]; first compound 0.7906 µM),relative viability ([1]; first compound 2.5 µM),relative viability ([1]; first compound 7.906 µM),relative viability ([1]; first compound 25 µM),relative viability ([2]; first compound 0.25 µM),relative viability ([2]; first compound 0.7906 µM),relative viability ([2]; first compound 2.5 µM),relative viability ([2]; first compound 7.906 µM),relative viability ([2]; first compound 25 µM),relative viability ([3]; first compound 0.25 µM),relative viability ([3]; first compound 0.7906 µM),relative viability ([3]; first compound 2.5 µM),relative viability ([3]; first compound 7.906 µM),relative viability ([3]; first compound 25 µM),relative viability ([4]; first compound 0.04 µM),relative viability ([4]; first compound 0.1265 µM),relative viability ([4]; first compound 1.265 µM),relative viability ([4]; first compound 4 µM),relative viability ([4]; first compound 0.4 µM)
HCC-78,0.203,0.2,0.205,0.207,0.215,0.538,0.636,0.535,0.615,0.584,0.536,0.41,0.453,0.505,0.381,0.43,0.429,0.574,0.625,
HCC-366,0.169,0.17,0.158,0.122,0.0892,0.855,,0.888,0.997,0.869,0.35,0.39,0.405,0.404,0.366,1.21,0.939,0.0538,0.0491,0.203
HCC-827,1.16,1.08,1.04,1.03,1.21,1.03,1.08,1.06,1.06,1.23,0.524,0.37,0.459,0.439,0.418,0.961,0.855,0.707,0.756,0.78
HOP-62,0.554,0.33,0.764,,0.496,1.17,1.24,1.11,1.1,1.21,0.465,0.536,0.46,0.381,0.458,0.998,0.734,0.422,0.469,0.56
IA-LM,0.399,0.438,0.326,0.349,0.494,1.12,1.07,1.23,0.757,1.09,,,,,,,,,,
LC-2-ad,0.554,0.298,0.497,0.216,0.356,0.97,1,0.988,0.907,0.759,0.543,0.456,0.474,0.505,0.483,0.892,0.8,0.386,0.498,0.39
LCLC-97TM1,0.184,0.128,0.193,0.136,0.149,0.762,0.848,0.89,0.991,0.703,0.227,0.236,0.192,0.152,0.198,0.516,0.655,0.691,0.528,0.254
LCLC-103H,0.63,0.532,0.536,0.714,0.739,0.909,0.825,0.839,0.955,0.8,0.421,0.518,0.515,0.458,0.451,0.522,0.448,0.312,0.323,0.231
LK-2,0.387,,0.537,0.271,0.222,1.24,,1.02,0.977,0.586,0.538,,0.774,0.463,0.188,0.201,0.225,0.196,0.206,0.18
LOU-NH91,0.499,,0.496,0.502,0.46,0.937,0.987,0.935,0.93,1.16,0.548,0.569,0.529,0.519,0.555,0.741,0.561,0.426,0.471,0.44
LU99A,0.282,0.302,0.295,0.283,0.271,0.71,0.631,0.795,0.71,0.566,0.412,0.339,0.425,0.358,0.339,0.298,0.254,0.259,0.225,0.227
NCI-H522,,,,,,,,,,,1.02,0.943,1.19,0.875,0.605,0.742,0.818,0.55,0.587,0.642
NCI-H596,0.447,0.391,0.43,0.361,0.345,0.826,0.953,1.03,0.916,1.08,,,,,,0.755,0.715,0.528,0.615,0.591
NCI-H1299,0.811,0.823,0.787,0.688,0.602,1.1,1.15,1.07,1.12,1.24,,,,,,,,,,
NCI-H1563,0.619,0.618,0.651,0.662,0.538,0.962,0.974,0.865,1.03,0.875,,,,,,0.697,0.705,0.724,0.644,0.576
NCI-H1623,,,,,,0.787,0.708,0.865,0.716,0.625,,,,,,0.513,0.488,0.43,0.542,0.351
NCI-H1648,,,,,,,,,,,0.328,,0.304,0.265,0.224,0.258,0.393,0.314,0.327,0.276
NCI-H1703,0.25,0.252,0.27,,0.226,0.309,0.31,0.368,0.413,0.3,,,,,,,,,,
NCI-H1792,0.269,0.303,0.294,0.262,0.259,,,,,,0.561,0.714,0.664,,0.608,0.862,0.513,0.596,0.7,
NCI-H2342,,,,,,1.14,1.11,1.15,1.03,0.861,0.482,0.537,0.459,,0.51,0.716,0.696,0.487,0.577,0.535
SW 900,,,,,,1.02,1.19,1.1,0.866,0.827,0.478,0.485,0.499,0.464,0.503,0.553,0.557,0.559,0.578,0.421
